According to the supplement of paper PMC10307832:

How the values were obtained:
Assay in all cases: relative viability (nuclei count vs DMSO), 5 days (fraction); higher = more cells survive
[1] = compound: C[C@H]([C@@H](C(=O)N)NC(=O)[C@@H]1CSSC[C@@H](C(=O)N[C@H](C(=O)N[C@@H](C(=O)N[C@H](C(=O)N1)CCCCN)CC2=CNC3=CC=CC=C32)CC4=CC=C(C=C4)O)NC(=O)[C@@H](CC5=CC=CC=C5)N)O [CAP-232] + CC(C)C[C@H](NC(=O)[C@H](Cc1ccccc1)NC(=O)c1cnccn1)B(O)O [Bortezomib] (partner 0.002 µM)
How it was run: (§1)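 Relative viability is defined as nuclei in treated wells over nuclei in vehicle wells. Duplicate plates were run and medians reported. Lung cancer cell lines in 1536-well plates were dosed by pin tool one day after seeding, with one drug or with a fixed anchor-drug dose plus five library-drug doses (not always all listed) in √10 steps, and nuclei were counted after 5 days.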

[2] = compound: C[C@H]([C@@H](C(=O)N)NC(=O)[C@@H]1CSSC[C@@H](C(=O)N[C@H](C(=O)N[C@@H](C(=O)N[C@H](C(=O)N1)CCCCN)CC2=CNC3=CC=CC=C32)CC4=CC=C(C=C4)O)NC(=O)[C@@H](CC5=CC=CC=C5)N)O [CAP-232] + CS(=O)(=O)N1CCN(Cc2cc3nc(-c4cccc5[nH]ncc45)nc(N4CCOCC4)c3s2)CC1 [Pictilisib] (partner 1 µM)
How it was run: as §1

[3] = compound: C[C@H]([C@@H](C(=O)N)NC(=O)[C@@H]1CSSC[C@@H](C(=O)N[C@H](C(=O)N[C@@H](C(=O)N[C@H](C(=O)N1)CCCCN)CC2=CNC3=CC=CC=C32)CC4=CC=C(C=C4)O)NC(=O)[C@@H](CC5=CC=CC=C5)N)O [CAP-232] + C[C@@H](Oc1cc(-c2cnn(C3CCNCC3)c2)cnc1N)c1c(Cl)ccc(F)c1Cl [Crizotinib] (partner 1 µM)
How it was run: as §1

[4] = compound: C[C@H]([C@@H](C(=O)N)NC(=O)[C@@H]1CSSC[C@@H](C(=O)N[C@H](C(=O)N[C@@H](C(=O)N[C@H](C(=O)N1)CCCCN)CC2=CNC3=CC=CC=C32)CC4=CC=C(C=C4)O)NC(=O)[C@@H](CC5=CC=CC=C5)N)O [CAP-232] + C[C@]1(O)C[C@@H](c2nc(-c3ccc4ccc(-c5ccccc5)nc4c3)c3c(N)nccn32)C1 [Linsitinib] (partner 1 µM)
How it was run: as §1

[5] = compound: C[C@H]([C@@H](C(=O)N)NC(=O)[C@@H]1CSSC[C@@H](C(=O)N[C@H](C(=O)N[C@@H](C(=O)N[C@H](C(=O)N1)CCCCN)CC2=CNC3=CC=CC=C32)CC4=CC=C(C=C4)O)NC(=O)[C@@H](CC5=CC=CC=C5)N)O [CAP-232] + Cc1nc(NC(=O)N2CCC[C@H]2C(N)=O)sc1-c1ccnc(C(C)(C)C(F)(F)F)c1 [Alpelisib] (partner 2 µM)
How it was run: as §1

Row | Cell Line | relative viability ([1]; first compound 0.4 µM) | relative viability ([1]; first compound 1.265 µM) | relative viability ([1]; first compound 4 µM) | relative viability ([1]; first compound 12.65 µM) | relative viability ([2]; first compound 0.4 µM) | relative viability ([2]; first compound 1.265 µM) | relative viability ([2]; first compound 4 µM) | relative viability ([2]; first compound 12.65 µM) | relative viability ([3]; first compound 0.4 µM) | relative viability ([3]; first compound 1.265 µM) | relative viability ([3]; first compound 4 µM) | relative viability ([3]; first compound 12.65 µM) | relative viability ([4]; first compound 0.4 µM) | relative viability ([4]; first compound 1.265 µM) | relative viability ([4]; first compound 4 µM) | relative viability ([4]; first compound 12.65 µM) | relative viability ([5]; first compound 0.4 µM) | relative viability ([5]; first compound 1.265 µM) | relative viability ([5]; first compound 4 µM) | relative viability ([5]; first compound 12.65 µM)
1 | HCC-15 | 1.16 | 1 | 1.27 | 0.77 | 0.778 | 0.764 | 0.806 | 0.54 | 0.807 | 0.816 | 0.924 | 0.825 | 0.853 | 0.894 | 0.912 | 0.805 | 0.935 | 0.878 | 0.86 | 0.824
2 | HCC-44 | 1 | 0.864 | 0.948 | 0.893 | 0.675 | 0.616 | 0.428 | 0.594 | 0.866 | 0.812 | 0.863 | 0.846 | 0.817 | 0.666 | 0.754 | 0.627 | 0.898 | 0.768 | 0.843 | 0.75
3 | HCC-78 | 0.544 | 0.563 | 0.489 | 0.396 | 0.206 | 0.178 | 0.21 | 0.195 | 0.367 | 0.34 | 0.251 | 0.323 | 0.53 | 0.559 | 0.371 | 0.408 | 0.317 | 0.371 | 0.312 | 0.819
4 | HCC-366 | 1.22 | 0.942 | 1.15 | 1 | 0.133 | 0.154 | 0.148 | 0.189 | 0.486 | 0.543 | 0.623 | 0.448 | 0.745 | 0.628 | 0.824 | 0.537 | 0.488 | 0.337 | 0.521 | 0.243
5 | HCC-827 | 1.19 | 1.06 | 1.03 | 1 | 0.842 | 1.1 | 0.896 | 1.05 | 0.932 | 1.02 | 0.784 | 0.963 | 0.911 | 0.893 | 0.921 | 0.959 | 0.913 | 0.925 | 0.967 | 0.919
6 | HOP-62 | 0.924 |  | 1.11 | 0.699 | 0.575 |  | 0.741 | 0.84 | 1 |  | 1.05 | 0.729 | 0.776 |  | 0.954 | 0.946 | 0.967 |  | 1.17 | 1.29
7 | IA-LM | 0.861 | 0.656 | 0.698 | 0.236 | 0.359 | 0.365 | 0.39 | 0.146 | 0.852 | 0.928 | 0.892 | 0.242 | 0.828 | 0.611 | 0.711 | 0.394 | 0.881 | 0.742 | 0.629 | 0.296
